The values that follow are results of earlier work, collected in patent US20150328215A1, “STABLE AMORPHOUS RALTEGRAVIR POTASSIUM PREMIX AND PROCESS FOR THE PREPARATION THEREOF” (priority 2012, published 2015).

The conditions of data set [1]: water.
The conditions of data set [2]: in vivo.

As for `Cc1nnc(C(=O)NC(C)(C)c2nc(C(=O)NCc3ccc(F)cc3)c(O)c(=O)n2C)o1` [Raltegravir], the aqueous solubility entry in data set [1] is “poor aqueous solubility”. As for `Cc1nnc(C(=O)NC(C)(C)c2nc(C(=O)NCc3ccc(F)cc3)c([O-])c(=O)n2C)o1.[K+]` [potassium salt of Raltegravir, potassium N-(4-fluorobenzyl)-5-hydroxy-1-methyl-2-(1-methyl-1-{[(5-methyl-1,3,4-oxadiazol-2-yl)carbonyl]amino}ethyl)-6-oxo-1,6-dihydropyrimidine-4-carboxamide], the aqueous solubility result in data set [1] is listed as “significantly more soluble in water”. Regarding `Cc1nnc(C(=O)NC(C)(C)c2nc(C(=O)NCc3ccc(F)cc3)c([O-])c(=O)n2C)o1.[K+]` [Form 1], in data set [2], the “bioavailability compared with Raltegravir free base” value was “superior bioavailability”.
